Reference: US7119091B2, “Triazaspiro[5.5]undecane derivatives and pharmaceutical compositions comprising thereof, as an active ingredient” (Ono Pharmaceutical Co., Ltd., priority 1999, dated 2006)
Where a name gives a salt, the structure may show the parent alone.

What was measured:
[1] = biological target: human CCR5 stably over-expressing CHO cell (CCR5/CHO cell) (Homo sapiens, UniProt P51681); assay: Inhibition test on the binding of RANTES to CCR5 (RANTES-induced transient increase of Ca ion); format: cell-based; details: inhibition of Ca2+ transient increase induced by 10 nM recombinant human RANTES in CCR5/CHO cells
human CCR5 stably over-expressing CHO cell (CCR5/CHO cell), sequence (P51681 whole entry): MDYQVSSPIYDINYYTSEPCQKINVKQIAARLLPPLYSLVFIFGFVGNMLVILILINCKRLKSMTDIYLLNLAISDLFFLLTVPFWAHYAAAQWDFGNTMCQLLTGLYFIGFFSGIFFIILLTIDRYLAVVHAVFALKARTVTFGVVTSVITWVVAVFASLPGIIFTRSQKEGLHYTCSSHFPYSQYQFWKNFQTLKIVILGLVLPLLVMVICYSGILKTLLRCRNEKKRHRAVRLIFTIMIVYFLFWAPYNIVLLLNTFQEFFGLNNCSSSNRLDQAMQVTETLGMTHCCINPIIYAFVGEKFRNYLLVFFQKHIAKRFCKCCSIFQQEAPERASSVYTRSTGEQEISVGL
Experimental: (1) Isolation of Human CCR5 Gene
Human placental cDNA was prepared using Marathon cDNA amplification kit (Clontech). PCR primers hCCR5XbaI-F1: 5′-[sequence]-3′ (SEQ ID NO:1) and hCCR5XbaI-R1: 5′-[sequence]-3′ (SEQ ID NO:2) were designed based on the sequence of GenBank U54994.
Using the human placental cDNA as the template and using Ex Taq (Takara), PCR reaction (2 minutes at 95° C.→(30 seconds at 95° C., 45 seconds at 60° C., 1 minute at 72° C.)×35 times) was carried out. The thus amplified PCR product was subjected to a 1% agarose gel electrophoresis, purified using QIAquick Gel Extraction Kit (QUIAGEN) and then digested with a restriction enzyme XbaI. […] By preparing the resulting plasmid pEF-BOS-bsr/hCCR5, its DNA sequence was verified. […]
The thus established human CCR5 stably over-expressing CHO cell (CCR5/CHO cell) was suspended in Ham's F-12 medium containing FBS (10%) and dispensed in 3.0×10^6 cells/well portions into a 96 well plate. […] Transient increase in the intracellular Ca^2+ concentration induced by the human RANTES was measured using a Ca^2+ detector for 96 well use (Hamamatsu Photonics), and inhibition ratio (%) of the test compound was calculated by the following calculation formula. Inhibition ratio=(Ec−Ea)/Ec×100 • Ec: measured value of Ca^2+ transient increase by RANTES • Ea: measured value of Ca^2+ transient increase by RANTES when a test compound was added

[2] = biological target: T1, human CCR2-expressing cell, human monocyte cell strain THP-1 (Homo sapiens, UniProt P41597); assay: Inhibition test on the binding of MCP-1 to CCR2 (MCP-1-induced transient increase of Ca ion); format: cell-based; details: inhibition of Ca2+ transient increase induced by 30 nM recombinant human MCP-1 in THP-1 cells
T1 construct: A human CCR2-expressing cell, e.g., a human monocyte cell strain THP-1 (ATCC No. TIB-202); host or cells: THP-1
T1 sequence (P41597 1-360 isoform P41597-2): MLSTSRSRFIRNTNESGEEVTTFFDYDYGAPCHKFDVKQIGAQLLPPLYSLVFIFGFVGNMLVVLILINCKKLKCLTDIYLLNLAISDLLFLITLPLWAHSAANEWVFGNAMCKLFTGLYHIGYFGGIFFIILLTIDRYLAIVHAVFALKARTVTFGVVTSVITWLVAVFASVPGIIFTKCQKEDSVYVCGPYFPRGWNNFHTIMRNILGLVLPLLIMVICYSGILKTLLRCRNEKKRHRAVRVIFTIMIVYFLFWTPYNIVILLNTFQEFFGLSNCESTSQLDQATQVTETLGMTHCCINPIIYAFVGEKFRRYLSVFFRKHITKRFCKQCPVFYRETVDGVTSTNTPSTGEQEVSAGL
Source text: An assay system for finding a compound having adsorption inhibition effect on CCR5 directional HIV strain was described in the foregoing, and it is possible as a matter of course to find a compound capable of inhibiting the activity of CCR5 or a ligand thereof using this system. In the same manner, it is possible to find a compound capable of inhibiting the activity of other chemokine receptor or a ligand thereof. For example, a system for finding a compound capable of inhibiting the activity of CCR2 or a ligand thereof can be constructed. […]
A human CCR2-expressing cell, e.g., a human monocyte cell strain THP-1 (ATCC No. TIB-202), was suspended in RPMI 1640 medium containing FBS (10%), Fura-2AM (5 μM), Probenecid (2.5 mM) and HEPES (20 mM, pH 7.4) to a density of 5.0×10^6 cells/ml and incubated at 37° C. for 30 minutes under shaded condition. […] Transient increase in the intracellular Ca 2+concentration induced by the human MCP-1 was measured using a Ca^2+ detector for 96 well use (Hamamatsu Photonics), and inhibition ratio (%) of the test compound was calculated by the following calculation formula. Inhibition ratio=(Ec−Ea)/Ec×100 • Ec: measured value of Ca^2+ transient increase by MCP-1 • Ea: measured value of Ca^2+ transient increase by MCP-1 when a test compound was added

Structure (SMILES) | IC50 [1] [nM] | IC50 [2] [nM]
CCCCN1C(=O)C(CC2CCCCC2)NC(=O)C12CCN(Cc1ccc3c(c1)OCCO3)CC2 (stereo not drawn) [Example 2(1), 9-(1,4-benzodioxan-6-ylmethyl)-1-butyl-3-cyclohexylmethyl-2,5-dioxo-1,4,9-triazaspiro[5.5]undecane.hydrochloride] | 50 | –
CCCCN1C(=O)C(CC2CCCCC2)NC(=O)C12CCN(Cc1c[nH]c(-c3ccccc3)n1)CC2 (stereo not drawn) [Example 2(2), 1-butyl-3-cyclohexylmethyl-2,5-dioxo-9-(2-phenylimidazol-4-ylmethyl)-1,4,9-triazaspiro[5.5]undecane.2 hydrochloride] | 50 | –
CCCN1C(=O)[C@H](CCCCNC(=O)OCc2ccccc2)NC(=O)C12CCN(CCc1ccccc1)CC2 [Example 5(2), (3S)-1-propyl-2,5-dioxo-3-(4-(N-benzyloxycarbonyl)aminobutyl)-9-(2-phenylethyl)-1,4,9-triazaspiro[5.5]undecane.hydrochloride] | – | 3000
